# T1: Solute carrier organic anion transporter family member 1A4 (Rattus norvegicus, UniProt O35913)
# T1 sequence (O35913 whole entry): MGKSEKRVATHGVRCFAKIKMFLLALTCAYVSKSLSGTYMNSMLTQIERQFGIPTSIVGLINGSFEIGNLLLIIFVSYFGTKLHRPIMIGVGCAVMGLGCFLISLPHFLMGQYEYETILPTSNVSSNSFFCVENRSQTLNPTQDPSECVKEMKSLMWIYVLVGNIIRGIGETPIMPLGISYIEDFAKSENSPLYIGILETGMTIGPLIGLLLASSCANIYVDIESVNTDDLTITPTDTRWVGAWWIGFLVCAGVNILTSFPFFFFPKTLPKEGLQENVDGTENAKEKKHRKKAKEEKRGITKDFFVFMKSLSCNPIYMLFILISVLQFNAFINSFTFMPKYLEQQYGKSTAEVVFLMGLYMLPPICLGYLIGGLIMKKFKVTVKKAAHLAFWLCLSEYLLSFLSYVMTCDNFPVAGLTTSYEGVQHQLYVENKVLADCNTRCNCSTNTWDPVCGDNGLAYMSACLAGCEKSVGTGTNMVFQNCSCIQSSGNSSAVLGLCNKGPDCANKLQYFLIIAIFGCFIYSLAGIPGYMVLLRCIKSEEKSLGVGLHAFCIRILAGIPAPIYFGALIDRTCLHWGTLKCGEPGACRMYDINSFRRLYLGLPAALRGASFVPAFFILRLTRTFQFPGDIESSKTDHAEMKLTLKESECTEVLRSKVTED
# Experiments:
# [1] = molecular target: T1, Solute carrier organic anion transporter family member 1A4; test: TP_TRANSPORTER: inhibition of Taurocholate uptake (Taurochorate: 1 uM, T3: 200 uM, data not shown) in Xenopus laevis oocytes; format: functional, cell-based; settings: oocyte
# [2] = molecular target: T1, Solute carrier organic anion transporter family member 1A4; test: TP_TRANSPORTER: inhibition of Taurocholate uptake (Taurochorate: 1 uM, E217betaG: 200 uM, data not shown) in Xenopus laevis oocytes; format: functional, cell-based; settings: oocyte
# [3] = molecular target: T1, Solute carrier organic anion transporter family member 1A4; test: TP_TRANSPORTER: inhibition of Taurocholate uptake (Taurochorate: 1 uM, BSP: 200 uM, data not shown) in Xenopus laevis oocytes; format: functional, cell-based; settings: oocyte
# [4] = molecular target: T1, Solute carrier organic anion transporter family member 1A4; test: TP_TRANSPORTER: inhibition of Taurocholate uptake (Taurochorate: 1 uM, T4: 200 uM, data not shown) in Xenopus laevis oocytes; format: functional, cell-based; settings: oocyte
# [5] = substrate: N[C@@H](Cc1cc(I)c(Oc2ccc(O)c(I)c2)c(I)c1)C(=O)O; test: (§1) TP_TRANSPORTER: uptake in Xenopus laevis oocytes; format: functional, cell-based, Oocyte
# [6] = substrate: N[C@@H](Cc1cc(I)c(Oc2cc(I)c(O)c(I)c2)c(I)c1)C(=O)O; test: as §1; format: functional, cell-based, Oocyte
Molecule,Km [5] [µM],Km [6] [µM],also measured
N[C@@H](Cc1cc(I)c(Oc2ccc(O)c(I)c2)c(I)c1)C(=O)O [LIOTHYRONINE],–,–,Activity [1]: inhibitor [+]
C[C@]12CC[C@@H]3c4ccc(O)cc4CC[C@H]3[C@@H]1CC[C@@H]2O[C@@H]1O[C@H](C(=O)O)[C@@H](O)[C@H](O)[C@H]1O [ESTRADIOL 17B GLUCURONIDE],–,–,Activity [2]: inhibitor [+]
O=C1OC(c2ccc(O)c(S(=O)(=O)[O-])c2)(c2ccc(O)c(S(=O)(=O)[O-])c2)c2c(Br)c(Br)c(Br)c(Br)c21.[Na+].[Na+] [SULFOBROMOPHTHALEIN SODIUM],–,–,Activity [3]: inhibitor [+]
N[C@@H](Cc1cc(I)c(Oc2cc(I)c(O)c(I)c2)c(I)c1)C(=O)O [LEVOTHYROXINE],–,–,Activity [4]: inhibitor [+]
Solute carrier organic anion transporter family member 1A5 (Rattus norvegicus) (protein) MGETEKRVATHEVRCFSKIKMFLLALTWAYVSKSLSGIYMNTMLTQIERQFDIPTSIVGFINGSFEIGNLLLIIFVSYFGTKLHRPIMIGVGCVIMGLGCFLMSLPHFLMGRYEYETTISPTSNLSSNSFLCMENRSQTLKPTQDPAECIKEMKSLMWIYVLVGNIIRGIGETPIMPLGISYIEDFAKSENSPLYIGILETGKVFGPIVGLLLGSFCASIYVDTGSVNTDDLTITPTDTRWVGAWWIGFLICAGVNILSSIPFFFFPKTLPKEGLQDDVDGTNNDKEEKHREKAKEENRGITKDFLPFMKSLSCNPIYMLLILTSVLQINAFINMFTFLPKYLEQQYGKSTAEVVLLIGVYNLPPICIGYLLIGFIMKKFKITVKKAAYMAFCLSLFEYLLYFLHFMITCDNFPVAGLTASYEGVHHPLYVENKVLADCNRGCSCSTNSWDPVCGDNGLAYMSACLAGCKKSVGTGTNMVFQNCSCIRSSGNSSAVLGLCKKGPECANKLQYFLIMSVIGSFIYSITAIPGYMVLLRCIKPEEKSLGIGLHAFCTRVFAGIPAPIYFGALIDRTCLHWGTLKCGEPGACRMYNINNFRRIYLVLPAALRGSSYLPALFILILMRKFQFPGEIDSSETELAEMKITVKKSECTDVHGSPQVENDGELKTRL,7.33,4.93,–
Solute carrier organic anion transporter family member 1A4 (Rattus norvegicus) (protein) MGKSEKRVATHGVRCFAKIKMFLLALTCAYVSKSLSGTYMNSMLTQIERQFGIPTSIVGLINGSFEIGNLLLIIFVSYFGTKLHRPIMIGVGCAVMGLGCFLISLPHFLMGQYEYETILPTSNVSSNSFFCVENRSQTLNPTQDPSECVKEMKSLMWIYVLVGNIIRGIGETPIMPLGISYIEDFAKSENSPLYIGILETGMTIGPLIGLLLASSCANIYVDIESVNTDDLTITPTDTRWVGAWWIGFLVCAGVNILTSFPFFFFPKTLPKEGLQENVDGTENAKEKKHRKKAKEEKRGITKDFFVFMKSLSCNPIYMLFILISVLQFNAFINSFTFMPKYLEQQYGKSTAEVVFLMGLYMLPPICLGYLIGGLIMKKFKVTVKKAAHLAFWLCLSEYLLSFLSYVMTCDNFPVAGLTTSYEGVQHQLYVENKVLADCNTRCNCSTNTWDPVCGDNGLAYMSACLAGCEKSVGTGTNMVFQNCSCIQSSGNSSAVLGLCNKGPDCANKLQYFLIIAIFGCFIYSLAGIPGYMVLLRCIKSEEKSLGVGLHAFCIRILAGIPAPIYFGALIDRTCLHWGTLKCGEPGACRMYDINSFRRLYLGLPAALRGASFVPAFFILRLTRTFQFPGDIESSKTDHAEMKLTLKESECTEVLRSKVTED,5.87,6.53,–

# — ChEMBL document CHEMBL2074037, “Molecular characterization and tissue distribution of a new organic anion transporter subtype (oatp3) that transports thyroid hormones and taurocholate and comparison with oatp2” (J Biol Chem, 1998)
